Source: patent publication US12084472B2 (Ardelyx, Inc., priority 2015, dated 2024)
Marks after values point to notes of the source that are not given here.

Tests used:
[1] = system: Western diet (WD)-fed mice; assay: Mouse model of NAFLD and mild diabetes, Western diet (WD)-fed mice: glucose, insulin, liver lipids, GLP levels; assay type: in vivo, C57BL/6 male mice
Protocol: Seven week old C57BL/6 male mice were housed 5/cage. Two cages of mice were put on normal chow (Harlan Teklad 2018), and the remaining cages of mice were put on WD (Harlan Teklad, TD.88137, […]/0.2% cholesterol) to induce NAFLD. After 10 weeks, mice were weighed and fasted for 4 h. Blood was collected to measure fasting glucose levels, processed to plasma for measurement of insulin, triglycerides and total cholesterol. This process was repeated on Day 29 of treatment. Based on body weight and fasted glucose and insulin levels, mice were divided into 5 treatment groups (n=10/group), Table 20. […] Mice were weighed twice weekly throughout the study. On the last day of the study (Day 30, 8 hours after food removal), mice were euthanized. Blood was collected in tubes with inhibitors to block DPP-4 activity and processed to plasma for measurement of liver enzymes and GLP levels using an Ace Alera clinical analyzer and the Multi-Array Assay System from Meso Scale Discovery, respectively. The entire liver was collected, weighed, and a sample was taken and weighed for measurement of triglycerides and total cholesterol.
Data for each group are presented as mean±SEM. Statistical analyses were performed using one-way ANOVA followed by Holm-Sidak's multiple comparisons test. For GLP levels, <statistical significance compared to vehicle (WD) is marked as *, P<0.05; **, P<0.01, ***, P<0.001, and ****, P<0.0001; of linagliptin (WD) versus I-389 alone (WD) or linaglptin+I-389 (WD) is marked as †, P<0.05; ††, P<0.01, of †††, P<0.001, and ††††, P<0.0001; and of I-389 (WD) versus linagliptin (WD)+I-389 (WD) is marked as ^, P<0.05; ^ ^P<0.01, ^ ^^P, P<0.001, and ^ ^^^, P<0.0001. For the remaining parameters, statistical significance compared to vehicle (WD) is marked as *, P<0.05; **, P<0.01, ***, P<0.001, and ****, P<0.0001.

small intestine transit = assay: Intestinal motility independent of gastric emptying (carmine red dye front); assay type: in vivo, C57BL/6 male mice; conditions: I-389 30 mg/kg PO; dye infused via duodenal catheter 1 h later; 15 min; vs vehicle; FIG. 6
Protocol: Seven-eight week old C57BL/6 male mice were acclimated for four days. Mice were then divided into 2 groups and fasted for 2-1/2 h, followed by a PO dose (10 mL/kg) of vehicle (10% 2-hydroxypropyl-β-cyclodextrin [HPCD] in 10 mM PBS containing 0.1% tween 80; HPCD/tween 80) or I-389 30 mg/kg. One hour later, carmine red (6% in sterile water; 100 μL/mouse) dye was infused via the duodenal catheter and mice were euthanised fifteen min after that. The entire length of the small intestine and the distance from the stomach to the dye front in the small intestine was measured and used to calculate the percentage of the small intestine the dye front had travelled during the 15 min timeframe.

human TGR5 = molecular target: T1, human TGR5 (Homo sapiens, UniProt Q8TDU6); assay: Cell-based TGR5 assay (cAMP generation, HTRF); conditions: HEK293 cells stably transfected with human TGR5; cAMP by HTRF; 30 minutes at 37° C.; read-out: pEC50 Human TGR5 (converted)
T1 construct: expressed in transfected cells; host or cells: HEK293
T1 sequence (Q8TDU6 1-330): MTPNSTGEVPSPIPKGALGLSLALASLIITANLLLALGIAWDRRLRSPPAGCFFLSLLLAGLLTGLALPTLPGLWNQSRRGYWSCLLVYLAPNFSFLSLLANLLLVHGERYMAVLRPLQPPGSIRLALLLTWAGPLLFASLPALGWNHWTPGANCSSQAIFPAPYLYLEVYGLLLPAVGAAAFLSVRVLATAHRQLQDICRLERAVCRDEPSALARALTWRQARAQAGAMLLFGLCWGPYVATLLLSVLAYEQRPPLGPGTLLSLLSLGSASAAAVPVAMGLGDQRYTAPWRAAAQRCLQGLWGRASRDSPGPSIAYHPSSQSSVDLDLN
How it was run: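 Read-out was HTRF detection of cAMP, converted to concentration via a standard curve and fitted (3-parameter logistic) for pEC50 and maximal response. Agonist stimulation used HEK293 cells stably transfected with human TGR5, incubated 30 min at 37° C in IBMX-containing buffer at 0.05 nM to 10 μM compound.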

With `CN(CCCCNC(=O)N[C@@H](CO)[C@@H](O)[C@H](O)[C@H](O)CO)S(=O)(=O)c1ccc(Cl)c(COC2(c3cnccc3-c3ccccc3OC3CC3)CC2)c1` [Compound I-389, 1-(4-[N-methyl[4-chloro-3-([1-[4-(2-cyclopropoxyphenyl)pyridin-3-yl]cyclopropoxy]methyl)benzene]sulfonamido]butyl)-3-[(2S,3R,4S,5R)-1,3,4,5,6-pentahydroxyhexan-2-yl]urea] the “active GLP-1 levels / release” value ([1]; WD-fed mice, Day 30 plasma, I-389 30 mg/kg, linagliptin 10 mg/kg, FIG. 14) was “effective at inducing active GLP-1 release”, the “total GLP-1 levels” value ([1]; WD-fed mice, Day 30 plasma, I-389 30 mg/kg, linagliptin 10 mg/kg, FIG. 15) was “highly elevated” and the body weight ([1]; WD-fed mice, data not shown) was “did not significantly affect”. The “liver total cholesterol levels (in words)” value ([1]; WD-fed mice, vs vehicle (WD)) was “lowered”, the “liver triglycerides (in words)” value ([1]; WD-fed mice, vs vehicle (WD)) was “lowered” and the Liver weight ([1]; Western diet, liraglutide 0.4 mg/kg BID SQ, I-389 30 mg/kg BID PO, linagliptin 10 mg/kg QD PO, mean±SEM, vehicle WD 2.13 ± 0.14) was 1.77 ± 0.09* g. For the same compound, the 4-h fasted insulin ([1]; Western diet, liraglutide 0.4 mg/kg BID SQ, I-389 30 mg/kg BID PO, linagliptin 10 mg/kg QD PO, mean±SEM, vehicle WD 2.3 ± 0.3) was 1.6 ± 0.2* ng/mL, the Hepatic cholesterol ([1]; Western diet, liraglutide 0.4 mg/kg BID SQ, I-389 30 mg/kg BID PO, linagliptin 10 mg/kg QD PO, mean±SEM, vehicle WD 8.56 ± 0.25) was 7.24 ± 0.41** mg/g and the Hepatic triglycerides ([1]; Western diet, liraglutide 0.4 mg/kg BID SQ, I-389 30 mg/kg BID PO, linagliptin 10 mg/kg QD PO, mean±SEM, vehicle WD 145.40 ± 14.80) was 87.82 ± 13.77*** mg/g. The 4-h fasted glucose ([1]; Western diet, liraglutide 0.4 mg/kg BID SQ, I-389 30 mg/kg BID PO, linagliptin 10 mg/kg QD PO, mean±SEM, vehicle WD 239 ± 13) was 178 ± 7** mg/dL, the “percentage the carmine red dye front travelled in the small intestine” value (small intestine transit) was “statistically significant increase” and the EC50 (human TGR5) was < 100 nM.
